The test system of one data set is Hsp70. Put plainly: Hsp70 levels by denaturing immunoprecipitation of [3H]-leucine radiolabeled HepG2 cells. In kind it is cell-based, human. Here is the method:
The HepG2 cell culture conditions were maintained as previously described (Dixon, et al., 1991). The cells were seeded into collagen-pre-coated dishes or six-well tissue culture plates and grown in complete medium containing minimum essential medium (MEM) with 0.1 mM nonessential amino acids, 1.0 mM sodium pyruvate, penicillin/streptomycin, and 10% fetal bovine serum. Cells were fed fresh complete medium every 3 days and maintained in a 5% CO2 incubator. All experiments were performed by using exponentially growing cells at 90-95% confluency. For heat shock treatment, the dishes were sealed with Parafilm and immersed in a water bath at 42° C. for indicated durations of time. Cells were incubated with ALLN alone at indicated concentrations or combined with other chemicals at 37° C. Cells were also incubated with different protease inhibitors alone at indicated concentrations or combined with other chemicals at 37° C.
(§1) HepG2 cells were preincubated for 4 hours in serum-free MEM and then radiolabeled with ^3 H-Leucine (150 μCi/ml) in a serum-free, leucine-free medium. Preincubation and labeling media each contained either 1.5% bovine serum albumin (BSA) alone, or BSA plus ALLN (40 μg/ml except as otherwise indicated), or BSA plus other protease inhibitors at concentrations indicated in the figure legends. At the indicated times, cells were removed from the 37° C. incubator and placed on ice, washed with cold phosphate-buffer saline (PBS) twice and lysed with lysis buffer containing 1% Triton X-100 (TX100), 1% deoxycholic acid (DOC) and 0.1% SDS in PBS containing proteinase inhibitors: 2 mM phenylmethylsulfonyl fluoride (PMSF); 2 μg/ml ALLN; 2 μg/ml leupeptin; and 2 μg/ml aprotinin. After a 30 min. incubation with lysis buffer at 4° C., the lysates were centrifuged at 14,000 g in a microcentrifuge for 5 min., and the supernatants were adjusted to 1% SDS concentration and boiled for 5 min. to denature the proteins. 1% TX100 was then added to dilute the lysates to a final concentration of 0.1% SDS. Cell lysates containing equal amounts of trichloroacetic acid (TCA)-insoluble radioactivity were used for immunoprecipitations by incubating with individual monoclonal antibody (1 μg/ml) for 2.5 hours at 4° C. Protein-A Sepharose 4B was added afterwards and the lysates incubated for another 1.5 hours at 4° C. to collect the immunocomplexes. After washing four times with 1×NET buffer (containing 0.5% TX100, 0.1% SDS), the immunocomplexes were mixed with sample buffer and boiled for 5 min. Following centrifugation, the supernatants were aliquoted for scintillation counting and for 3-15% gradient polyacrymide gel electrophoresis (SDS-PAGE) . The gels were later subjected to fluorography. All values are presented as the mean ± S.D. from three individual experiments except as otherwise indicated.
Denaturing immunoprecipitation was chosen because Hsp70 is a major cytosolic chaperone protein and it is co-immunoprecipitated with a number of other proteins under non-denaturingconditions (Beckmann, et al., 1990; Zhou, et al., 1995).

The next data set deals with HepG2 cells. The data set is described as follows: Total incorporation of radiolabel (TCA cpm) as indicator of cell toxicity, HepG2. The data set is classed as cell-based, human. As to conditions: HepG2, 4 hours; MG132 10 or 30 μM; lactacystin 10 μM. Here is the method: as §1
In data set [1] the test system is cysteine protease, serine protease, trypsin or chymotrypsin. The following applies: even upon extended exposure, Ward, et al., 1995, Fenteany; cited from earlier work.
The subject of another data set is proteasomes. As to conditions: Rock, et al., 1994; cited from earlier work.
Another data set relates to calpain. As to conditions: Rock, et al., 1994; cited from earlier work.
The target in another data set is cathepsin B (Homo sapiens, UniProt P07858). As to conditions: Rock, et al., 1994; cited from earlier work.
In a further data set the test system is apoB. The following applies: Sakata, et al., 1993, unpublished data; cited from earlier work.
Data set [2] concerns 3-hydroxy-3-methylglutaryl-coenzyme A (HMG-CoA) reductase. As to conditions: Inoue, et al., 1991; cited from earlier work.

SMILES strings stand for the structures. Peptide text beside a SMILES is read from it.

On to `CC(=O)N[C@@H](CSC(=O)[C@]1([C@@H](O)C(C)C)NC(=O)[C@H](C)[C@@H]1O)C(=O)O` [lactacystin], for which the “Induction of Hsp70 levels by proteasome inhibitors” value in the data set with Hsp70 (HepG2, 4 hours, MG132 10 μM or 30 μM, lactacystin 10 μM, 30 min radiolabeling) is “induced Hsp70 levels dramatically”. Further, the “Toxicity to the cells (TCA-precipitable radioactivities)” value with HepG2 cells was “without obvious toxicity”. The “Effect on cysteine protease, serine protease, trypsin or chymotrypsin” value in data set [1] was “no detectable effect”.

In the case of `CSCC[C@@H](C=O)NC(=O)[C@H](CC(C)C)NC(=O)[C@H](CC(C)C)NC(C)=O` [ALLM, N-acetyl-leucyl-leucyl-methioninal] (Ac-Leu-Leu-Met-aldehyde), in the data set with Hsp70 (HepG2, 40 μg/ml, 4 hours), the “Ability to induce Hsp70 levels compared with ALLN” value is “less ability to induce Hsp70 levels”. Further, the “Induction of Hsp70 by protease inhibitors” value with Hsp70 (HepG2, 4 hours pre-treatment, ALLN, ALLM 40 μg/ml, leupeptin, pepstatin A 50 μg/ml, E-64d 25 μg/ml, PMSF 1 mM, aprotinin 100 KIU/ml, Benz 1 mM, CIP 200 μM) is “significantly induce”. In the data set on proteasomes, the Inhibition of proteasomes entry is listed as “potent inhibitors”. The Activity against calpain result with calpain was “significant activities”. Also, the “Activity against cathepsin B” value at cathepsin B is reported as “significant activities”. Moreover, in the data set with apoB, the “Protection of apoB” value was “less effectively”. Also, the “Protection of HMG-CoA reductase” value in data set [2] is on record as “less effectively”.

Source of the values: patent publication US5942494A, “Stimulation of gene expression and synthesis of heat shock protein 72/73 (HSP 70)” (The Trustees of Columbia University in the City of New York, priority 1996, dated 1999).
